Reference: paper PMC11578313, “Miniaturized Modular Click Chemistry‐enabled Rapid Discovery of Unique SARS‐CoV‐2 M^pro Inhibitors With Robust Potency and Drug‐like Profile” (Advanced Science, 2024)
Values joined by “and” are separate entries in the source; they are usually repeats but may differ in a detail not shown here. Equal values may be shown once.

Test: In vivo pharmacokinetic study in male ICR mice (compound alone)
Settings: for Plasma concentration (Calculated Concentration): mouse plasma
Description: The pharmacokinetics profile of the newly developed antiviral compound C5N17B was subsequently evaluated in male ICR mice that were free from specific pathogens, aiming to assess its potential for therapeutic application in vivo.
A total of six male ICR mice were randomly assigned to two groups. One group received the test drug intravenously at a dosage of 2 mg kg^−1, while the other group received oral administration at a dosage of 10 mg kg^−1. To prepare solutions of C5N17B, 2.39 mg compound was dissolved in a mixture of 0.119 mL DMSO, 0.238 mL polyoxyl 15 hydroxystearate (Solutol), and 2.027 mL normal saline. For the intravenous group, blood samples were collected from the sinus jugular into heparinized centrifugation tubes at various time points after dosing: 5, 15, 30 min, 1, 2, 4, 6, 8, and 24 h. As for the oral administration group, blood samples were collected at similar time points (0.05 mL of blood each time). The collected blood samples were then centrifuged at a speed of 4000 rpm for 10 min to separate plasma, which was subsequently stored at −20 °C until further LC‐MS analysis to determine the concentration of C5N17B. Briefly, the analysis involved adding 20 µL of plasma, sample calibration standard, quality control, and dilution quality control, and blank samples into respective wells on a 96‐well plate. Then each sample was quenched with 200 µL of internal standard (the blank sample was quenched with 200 µL of ACN: MeOH = 1:1), followed by vortex‐mixed for 5 min, and centrifuged for 0.5 min at 4000 rpm, 4 °C. Next, a 100 µL portion of supernatant was transferred to another clean 96‐well plate and diluted with 100 µL of water, vortex‐mixed for 5 min and centrifuged for 10 min at 4000 rpm, 4 °C, then the sample was injected for LC‐MS/MS analysis. All samples were quantified using an LC‐MS/MS‐AR Triple Quad 5500+ (SCIEX, USA) and the ExionLC liquid phase system. The mobile phase was 0.1% formic acid‐water/ACN with gradient elute at a flow rate of 0.8 mL mi^−1n (total time 2.20 min), and the detection wavelength was 225 nm. All blood samples were centrifuged using an Eppendorf 5424R centrifuge and quantified using an LC‐MS/MS‐AR Triple Quad 5500+ (SCIEX, USA). The pharmacokinetic parameters were calculated by WinNolin 8.2 software.

[1] = IV 2 mg/kg, individual mice 1#-3#, 2 mg/kg
[2] = IV 2 mg/kg, individual mice 1-3, 2 mg/kg
[3] = PO 10 mg/kg, individual mice 4#-6#, 10 mg/kg
[4] = PO 10 mg/kg, individual mice 4-6, 10 mg/kg

Compound: Cc1cncc(C(=O)N2C[C@H]3CC[C@@H](C2)N3[C@H](c2cccc(F)c2)c2cn(CCc3ccsc3)nn2)c1 [Compound C5N17B]
- Plasma concentration (Calculated Concentration) (IV 2 mg/kg, 5 min (5 min), individual mice 1#-3#, 2 mg/kg): 185 ng/mL and 233 ng/mL
- Plasma concentration (Calculated Concentration) (IV 2 mg/kg, 0.5 h (30 min), individual mice 1#-3#, 2 mg/kg): 10.2 ng/mL and 16.1 ng/mL
- plasma concentration (IV 2 mg/kg, 1 h, individual mice): BQL
- Plasma concentration (Calculated Concentration) (IV 2 mg/kg, 1 h, individual mice 1#-3#, 2 mg/kg): BQL (3×) and No Peak
- plasma concentration (IV 2 mg/kg, 2 h, individual mice): BQL
- Plasma concentration (Calculated Concentration) (IV 2 mg/kg, 2 h, individual mice 1#-3#, 2 mg/kg): BQL (3×) and No Peak
- plasma concentration (IV 2 mg/kg, 4 h, individual mice): BQL
- Plasma concentration (Calculated Concentration) (IV 2 mg/kg, 4 h, individual mice 1#-3#, 2 mg/kg): BQL (3×) and No Peak
- plasma concentration (IV 2 mg/kg, 6 h, individual mice): BQL
- Plasma concentration (Calculated Concentration) (IV 2 mg/kg, 6 h, individual mice 1#-3#, 2 mg/kg): BQL (3×) and No Peak
- plasma concentration (IV 2 mg/kg, 8 h, individual mice): BQL
- Plasma concentration (Calculated Concentration) (IV 2 mg/kg, 8 h, individual mice 1#-3#, 2 mg/kg): BQL (3×) and No Peak
- plasma concentration (IV 2 mg/kg, 24 h, individual mice): BQL
- Plasma concentration (Calculated Concentration) (IV 2 mg/kg, 24 h, individual mice 1#-3#, 2 mg/kg): BQL (3×) and No Peak
- AUC0-∞ [1]: 51.4 ng·h/mL and 65.2 ng·h/mL
- AUC(0-t) [1]: 49.9 ng·h/mL and 62.6 ng·h/mL
- C0 [1]: 342 ng/mL and 528 ng/mL
- Cl [1]: 648.77 mL/min/kg and 511.58 mL/min/kg
- Cmax [1]: 185 ng/mL and 233 ng/mL
- MRT0-t [1]: 6.48 min and 5.56 min
- MRT0-∞ [1]: 7.38 min and 6.9 min
- T1/2 [1]: 6 min and 6.66 min
- Vz [1]: 5.616 L/kg and 4.924 L/kg
- Tlast (IV 2 mg/kg, individual mice 1-3): 0.5 h
- AUCINF_obs [2]: 51.379 ng·h/mL and 65.1568 ng·h/mL
- AUCINF_pred [2]: 51.3513 ng·h/mL and 64.7977 ng·h/mL
- AUC_%Back_Ext_obs [2]: 49.436% and 42.7448% and 48.6559%
- AUC_%Back_Ext_pred [2]: 49.6744% and 42.7678% and 48.9255%
- AUC_%Extrap_obs [2]: 3.513% and 2.864% and 3.964%
- AUC_%Extrap_pred [2]: 3.048% and 2.812% and 3.432%
- AUCall [2]: 49.9075 ng·h/mL and 62.5739 ng·h/mL
- AUClast [2]: 49.9075 ng·h/mL and 62.5739 ng·h/mL
- AUMCINF_obs [2]: 8.9367 h*h*ng/mL and 6.325 h*h*ng/mL and 7.498 h*h*ng/mL
- AUMCINF_pred [2]: 8.682 h*h*ng/mL and 6.307 h*h*ng/mL and 7.2606 h*h*ng/mL
- AUMC_%Extrap_obs [2]: 20.8781% and 14.9894% and 22.7511%
- AUMC_%Extrap_pred [2]: 18.5552% and 14.7494% and 20.228%
- AUMClast [2]: 7.071 h*h*ng/mL and 5.377 h*h*ng/mL and 5.792 h*h*ng/mL
- C0 [2]: 342.295 ng/mL and 528.167 ng/mL
- Cl_obs [2]: 648.773 mL/min/kg and 511.587 mL/min/kg
- Cl_pred [2]: 412.98 mL/min/kg and 649.123 mL/min/kg and 514.422 mL/min/kg
- Clast [2]: 10.2 ng/mL and 16.1 ng/mL
- Clast_pred [2]: 15.8864 ng/mL and 10.0084 ng/mL and 13.8618 ng/mL
- Cmax [2]: 185 ng/mL and 233 ng/mL
- Cmax_D [2]: 146 kg·ng/mL/mg and 92.5 kg·ng/mL/mg and 116.5 kg·ng/mL/mg
- HL_Lambda_z [2]: 0.1073 h and 0.09999 h and 0.1112 h
- Lambda_z [2]: 6.932 h⁻¹ and 6.233 h⁻¹
- MRTINF_obs [2]: 7.386 min and 6.906 min
- MRTINF_pred [2]: 7.368 min and 6.72 min
- MRTlast [2]: 6.462 min and 5.554 min
- Vss_obs [2]: 2.71724 L/kg and 4.7917 L/kg and 3.53216 L/kg
- Vss_pred [2]: 2.66526 L/kg and 4.78335 L/kg and 3.45846 L/kg
- Vz_obs [2]: 3.81856 L/kg and 5.61561 L/kg and 4.92437 L/kg
- Vz_pred [2]: 3.83697 L/kg and 5.61863 L/kg and 4.95166 L/kg
- C0, Mean (IV 2 mg/kg, mean of mice 1#-3#): 514 ng/mL
- Plasma concentration (Calculated Concentration) (PO 10 mg/kg (10MPK), 5 min (5 min), individual mice 4#-6#): 23.7 ng/mL and 30.0 ng/mL and 68.2 ng/mL and 30 ng/mL
- Plasma concentration (Calculated Concentration) (PO 10 mg/kg (10MPK), 15 min, individual mice 4-6): 15.3 ng/mL and 19.3 ng/mL
- Plasma concentration (Calculated Concentration) (PO 10 mg/kg (10MPK), 30 min, individual mice 4-6): 8.4 ng/mL and 4.44 ng/mL and 12 ng/mL
- Plasma concentration (Calculated Concentration) (PO 10 mg/kg (10MPK), 1 hr, individual mice 4-6): 6.32 ng/mL and 10.4 ng/mL and 4.89 ng/mL
- Plasma concentration (Calculated Concentration), re-analysis (PO 10 mg/kg (10MPK), 1 hr, samples marked "re", individual mice): 5.19 ng/mL
- Plasma concentration (Calculated Concentration) (PO 10 mg/kg (10MPK), 2 hr, individual mice 4-6): 6.1 ng/mL and 8.71 ng/mL and 16.7 ng/mL
- Plasma concentration (Calculated Concentration) (PO 10 mg/kg (10MPK), 4 hr, individual mice 4-6): 4.35 ng/mL and 7.74 ng/mL
- Plasma concentration (Calculated Concentration) (PO 10 mg/kg (10MPK), 6 hr, individual mice 4-6): No Peak
- Plasma concentration (Calculated Concentration) (PO 10 mg/kg (10MPK), 8 hr, individual mice 4-6): No Peak
- Plasma concentration (Calculated Concentration) (PO 10 mg/kg (10MPK), 24 hr, individual mice 4-6): No Peak
- T1/2 (PO 10 mg/kg (10MPK), individual mice 4#-6#): 208 min and 142 min and 290 min
- plasma concentration (PO 10 mg/kg, 0.5 h, individual mice 4#-6#, 10 mg/kg): 8.4 ng/mL and 12 ng/mL
- plasma concentration (PO 10 mg/kg, 2 h, individual mice 4#-6#, 10 mg/kg): 6.1 ng/mL
- plasma concentration (PO 10 mg/kg, 6 h, individual mice 4#-6#, 10 mg/kg): BQL
- plasma concentration (PO 10 mg/kg, 8 h, individual mice 4#-6#): BQL
- plasma concentration (PO 10 mg/kg, 24 h, individual mice 4#-6#): BQL
- AUC0-∞ [3]: 54.0 ng·h/mL and 102 ng·h/mL
- AUC(0-t) [3]: 45.5 ng·h/mL and 47.9 ng·h/mL
- Cmax [3]: 30.0 ng/mL and 68.2 ng/mL and 23.7 ng/mL
- F [3]: 14.30% and 15.08%
- MRT0-t [3]: 114 min and 110 min
- MRT0-∞ [3]: 314 min and 185 min and 401 min
- Tlag (PO 10 mg/kg, individual mice 4-6): 0 h
- Cmax (PO 10 mg/kg, individual mice 4-6, full-precision output, 10 mg/kg): 30 ng/mL and 68.2 ng/mL and 23.7 ng/mL
- AUCINF_obs [4]: 54.0464 ng·h/mL and 102.004 ng·h/mL
- AUCINF_pred [4]: 53.9915 ng·h/mL and 94.7713 ng·h/mL
- AUC_%Extrap_obs [4]: 48.9815% and 15.8821% and 53.0006%
- AUC_%Extrap_pred [4]: 44.7444% and 15.7964% and 49.4138%
- AUCall [4]: 45.4628 ng·h/mL and 47.9412 ng·h/mL
- AUClast [4]: 45.4628 ng·h/mL and 47.9412 ng·h/mL
- AUMCINF_obs [4]: 311.492 h*h*ng/mL and 166.93 h*h*ng/mL and 682.098 h*h*ng/mL
- AUMCINF_pred [4]: 270.44 h*h*ng/mL and 166.412 h*h*ng/mL and 602.65 h*h*ng/mL
- AUMC_%Extrap_obs [4]: 84.1842% and 48.3677% and 87.065%
- AUMC_%Extrap_pred [4]: 81.7834% and 48.2072% and 85.3597%
- AUMClast [4]: 49.2649 h*h*ng/mL and 86.1896 h*h*ng/mL and 88.2296 h*h*ng/mL
- Cl_F_obs [4]: 3083.77 mL/min/kg and 1633.93 mL/min/kg
- Cl_F_pred [4]: 3030.33 mL/min/kg and 3086.92 mL/min/kg and 1758.62 mL/min/kg
- Clast [4]: 5.85 ng/mL and 2.52 ng/mL and 7.74 ng/mL
- Clast_pred [4]: 4.934 ng/mL and 2.504 ng/mL and 6.705 ng/mL
- Cmax_D [4]: 3 kg·ng/mL/mg and 6.82 kg·ng/mL/mg and 2.37 kg·ng/mL/mg
- HL_Lambda_z [4]: 3.457 h and 2.361 h and 4.842 h
- Lambda_z [4]: 0.2005 h⁻¹ and 0.2936 h⁻¹ and 0.1432 h⁻¹
- MRTINF_obs [4]: 313.7 min and 185.3 min and 401.2 min
